Data on 19 compounds can be found in patent publication US12162858B2, “Quinoline derivatives as inhibitors of AXL/MER RTK and CSF1R” (QURIENT CO., LTD., priority 2018, dated 2024).

This assay concerns the target T1, Axl (Homo sapiens, UniProt P30530).
T1 sequence (P30530 26-894): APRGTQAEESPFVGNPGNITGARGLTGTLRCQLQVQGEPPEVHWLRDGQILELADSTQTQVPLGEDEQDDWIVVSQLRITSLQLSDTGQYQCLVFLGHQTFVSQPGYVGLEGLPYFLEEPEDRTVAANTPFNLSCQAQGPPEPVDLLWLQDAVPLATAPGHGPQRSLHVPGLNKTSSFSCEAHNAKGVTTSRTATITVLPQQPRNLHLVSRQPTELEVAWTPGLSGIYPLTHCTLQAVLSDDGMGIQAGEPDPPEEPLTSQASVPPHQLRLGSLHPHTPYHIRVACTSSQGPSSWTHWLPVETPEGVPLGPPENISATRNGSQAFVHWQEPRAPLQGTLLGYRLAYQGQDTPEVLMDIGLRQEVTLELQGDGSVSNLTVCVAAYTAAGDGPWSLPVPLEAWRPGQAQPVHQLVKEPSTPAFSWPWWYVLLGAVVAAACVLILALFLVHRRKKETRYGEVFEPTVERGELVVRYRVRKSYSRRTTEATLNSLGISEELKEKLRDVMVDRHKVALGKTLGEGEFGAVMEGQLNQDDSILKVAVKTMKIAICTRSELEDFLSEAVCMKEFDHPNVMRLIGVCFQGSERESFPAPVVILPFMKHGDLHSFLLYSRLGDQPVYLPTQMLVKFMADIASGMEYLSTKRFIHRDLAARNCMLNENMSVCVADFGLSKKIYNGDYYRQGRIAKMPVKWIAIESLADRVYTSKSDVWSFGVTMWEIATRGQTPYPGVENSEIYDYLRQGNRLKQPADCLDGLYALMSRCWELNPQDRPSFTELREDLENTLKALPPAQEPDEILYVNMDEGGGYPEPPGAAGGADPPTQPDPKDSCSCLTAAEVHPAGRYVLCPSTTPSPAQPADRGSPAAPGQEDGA
Kind of assay: Cellular Axl inhibition ELISA (p-Axl, Gas6-induced) using H1299 cells. It counts as cell-based. More on the design: especially H1299 cell endogenously expresses Axl; endogenous in cells; host or cells: H1299. Conditions: read-out: Cellular Axl activity by H1299 Elisa (IC50). Put shortly: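 H1299 cells, seeded overnight, exposed 24 h at 37 °C to 10-point 3-fold compound dilutions, then stimulated with 200 ng/ml human Gas6 (final) for 1 h. Lysates assayed for p-Axl by sandwich ELISA with HRP/TMB, absorbance 450 nm; IC50 by sigmoidal dose-response fit.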
For the compound `COc1cc2nccc(Oc3ccc(NC(=O)c4nn(C5CC5)cc4OCC(F)(F)F)nc3)c2cc1OC` [Compound 5], the IC50 was below 0.5 µM.
Take `COc1cc2nccc(Oc3ccc(NC(=O)c4nn(C5CCOC5)cc4OCC(F)(F)F)c(F)c3)c2cc1OC` (stereo not shown) [Compound 77]: the IC50 is below 0.5 µM.
Consider `COc1cc2nccc(Oc3ccc(NC(=O)c4nn(C5CCNC5)cc4OCC(F)(F)F)cc3F)c2cc1OC` (stereo not shown) [Compound 78], for which the IC50 is below 0.5 µM.
For `COc1cc2nccc(Oc3ccc(NC(=O)c4nn(CCN)cc4OCC(F)(F)F)cc3F)c2cc1OC` [Compound 79] the value was below 0.5 µM; for `COc1cc2nccc(Oc3ccc(NC(=O)c4nn(CC(C)O)cc4OCC(F)(F)F)cc3F)c2cc1OC` (stereo not shown) [Compound 80], below 0.5 µM; for `COc1cc2nccc(Oc3ccc(NC(=O)c4nn(C5CCNC5)cc4OCC(F)(F)F)cc3C)c2cc1OC` (stereo not shown) [Compound 81], at least 1 µM.
The figure for `COc1cc2nccc(Oc3ccc(NC(=O)c4nn(CCN)cc4OCC(F)(F)F)cc3C)c2cc1OC` [Compound 82] is at least 1 µM.
Regarding `COc1cc2nccc(Oc3ccc(NC(=O)c4nn(CC(C)O)cc4OCC(F)(F)F)cc3C)c2cc1OC` (stereo not shown) [Compound 83], the IC50 is below 0.5 µM.
With `COCCn1cc(OCC(F)(F)F)c(C(=O)Nc2ccc(Oc3ccnc4cc(OC)c(OC)cc34)c(C)c2)n1` [Compound 84], the IC50 is below 0.5 µM.
Take `COc1cc2nccc(Oc3ccc(NC(=O)c4nn(C5CCOC5)cc4OCC(F)(F)F)cc3C)c2cc1OC` (stereo not shown) [Compound 85]: the IC50 is below 0.5 µM.
On to `COc1cc2nccc(Oc3ccc(NC(=O)c4nn(C5CCNC5)cc4OCC(F)(F)F)cc3)c2cc1OC` (stereo not shown) [Compound 86], for which the IC50 was below 0.5 µM.
`COc1cc2nccc(Oc3ccc(NC(=O)c4nn(CC(C)C)cc4OCC(F)(F)F)cc3)c2cc1OC` [Compound 87]: the IC50 is below 0.5 µM.
For `COc1cc2nccc(Oc3ccc(NC(=O)c4nn(CCN)cc4OCC(F)(F)F)cc3)c2cc1OC` [Compound 88] the value was 0.5 to 1 µM; for `COc1cc2nccc(Oc3ccc(NC(=O)c4nn(CC(C)O)cc4OCC(F)(F)F)cc3)c2cc1OC` (stereo not shown) [Compound 89], below 0.5 µM.
Take `COc1cc2nccc(Oc3ccc(NC(=O)c4nn(C5CCOCC5)cc4OCC(F)(F)F)nc3)c2cc1OC` [Compound 90]: the IC50 is below 0.5 µM.
As to `COc1cc2nccc(Oc3ccc(NC(=O)c4nn(C5CCN(C)C5)cc4OCC(F)(F)F)nc3)c2cc1OC` (stereo not shown) [Compound 91], the concentration for half-maximal inhibition (IC50) was below 0.5 µM.
`COc1cc2nccc(Oc3ccc(NC(=O)c4nn(CCC5CCCC5)cc4OCC(F)(F)F)nc3)c2cc1OC` [Compound 93]: the IC50 was below 0.5 µM.
As for `COc1cc2nccc(Oc3ccc(NC(=O)c4nn(C5CCN(C)C5)cc4OCC(F)(F)F)c(F)c3)c2cc1OC` (stereo not shown) [Compound 94], the IC50 is below 0.5 µM.
`COc1cc2nccc(Oc3ccc(NC(=O)c4nn(CC5COC5)cc4OCC(F)(F)F)c(F)c3)c2cc1OC` [Compound 95]: the IC50 is below 0.5 µM.

Broadly, the IC50 is the concentration needed to halve the response being measured.
